Experimental data from US20230173059A1, “TOLL-LIKE RECEPTOR (TLR) AGONIST NANOPARTICLES AND USES THEREOF” (The Board of Trustees of the Leland Stanford Junior …, priority 2020, published 2023).
“And” between values parts separate entries of the source, which are not always exact repeats. Equal values may be shown once.

T1: TLR9 (Mus musculus, UniProt Q9EQU3)
T1 construct: host or cells: Raw-Blue (NF-kB-SEAP) mouse macrophage reporter cells
T1 sequence (Q9EQU3 26-1032): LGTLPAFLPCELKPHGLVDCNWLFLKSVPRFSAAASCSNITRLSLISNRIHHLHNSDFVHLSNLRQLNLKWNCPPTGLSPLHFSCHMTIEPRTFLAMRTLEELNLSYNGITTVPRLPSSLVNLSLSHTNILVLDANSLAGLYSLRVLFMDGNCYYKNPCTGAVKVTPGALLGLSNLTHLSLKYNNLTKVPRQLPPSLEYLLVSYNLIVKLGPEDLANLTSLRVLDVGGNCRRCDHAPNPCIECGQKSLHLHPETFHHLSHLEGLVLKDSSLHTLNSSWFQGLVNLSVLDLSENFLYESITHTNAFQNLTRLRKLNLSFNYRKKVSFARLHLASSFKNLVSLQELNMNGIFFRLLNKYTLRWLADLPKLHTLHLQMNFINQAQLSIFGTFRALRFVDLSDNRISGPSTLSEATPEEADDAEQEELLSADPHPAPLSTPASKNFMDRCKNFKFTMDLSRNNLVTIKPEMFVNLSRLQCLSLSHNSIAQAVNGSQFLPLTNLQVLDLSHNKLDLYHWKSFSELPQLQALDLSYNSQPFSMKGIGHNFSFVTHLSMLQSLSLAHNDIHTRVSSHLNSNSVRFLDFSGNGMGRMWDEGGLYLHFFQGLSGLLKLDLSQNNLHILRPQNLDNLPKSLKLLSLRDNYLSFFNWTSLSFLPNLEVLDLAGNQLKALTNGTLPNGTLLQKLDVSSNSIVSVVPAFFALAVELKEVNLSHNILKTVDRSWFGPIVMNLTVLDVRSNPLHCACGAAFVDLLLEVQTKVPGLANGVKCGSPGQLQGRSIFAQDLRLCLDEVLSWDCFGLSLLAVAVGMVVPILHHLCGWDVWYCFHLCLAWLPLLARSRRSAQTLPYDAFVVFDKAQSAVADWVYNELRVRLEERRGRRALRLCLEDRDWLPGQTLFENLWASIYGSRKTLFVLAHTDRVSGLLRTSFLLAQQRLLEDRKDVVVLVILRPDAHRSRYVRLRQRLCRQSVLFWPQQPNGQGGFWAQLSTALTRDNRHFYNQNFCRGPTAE

B1: ovalbumin (protein, UniProt P01012 2-386, looked up)
Ovalbumin: GSIGAASMEFCFDVFKELKVHHANENIFYCPIAIMSALAMVYLGAKDSTRTQINKVVRFDKLPGFGDSIEAQCGTSVNVHSSLRDILNQITKPNDVYSFSLASRLYAEERYPILPEYLQCVKELYRGGLEPINFQTAADQARELINSWVESQTNGIIRNVLQPSSVDSQTAMVLVNAIVFKGLWEKAFKDEDTQAMPFRVTEQESKPVQMMYQIGLFRVASMASEKMKILELPFASGTMSMLVLLPDEVSGLEQLESIINFEKLTEWTSSNVMEERKIKVYLPRMKMEEKYNLTSVLMAMGITDVFSSSANLSGISSAESLKISQAVHAAHAEINEAGREVVGSAEAGVDAASVSEEFRADHPFLFCIKHIATNAVLFFGRCVSP
notes: model antigen protein, MW=43 kDa

Assays:
[1] = Cargo and polymer diffusivity (FRAP, Stokes-Einstein, MSDM); type: physicochemical; conditions: for Diffusivity in 1:5 gel / Diffusivity in 2:10 gel: FRAP; for Diffusivity in PBS: calculated with Stokes-Einstein from RH
Source text: To characterize the dynamics of vaccine exposure expected from the vaccine-loaded gels, we assessed the diffusivities of both vaccine cargo in each of the two gel formulations of interest using fluorescence recovery after photobleaching (FRAP) experiments (FIG. 9F. FIG. 16). The PNP gels are unique compared to traditional covalently cross-linked gels as their bonds are dynamic and continuously rearrange^28. This feature results in self-diffusion of the polymer network over time within the intact hydrogel^40,41. OVA's hydrodynamic radius (RH) in PBS is reported in the literature to be 3.2 nm^42, corresponding to a diffusivity value, D, of 76.6 μm^2/s. Using multi-angle light scattering (MALS) we measured Poly(I:C)'s hydrodynamic radius to be much larger, with an RH of 34.2 nm, corresponding to a D value of 7.2 μm^2/s. This difference in hydrodynamic size results in OVA having more than a 10-fold greater diffusivity than Poly(I:C) in PBS (FIG. 9G) and a 100-fold difference in a typical covalently cross-linked hydrogel (FIG. 17). […] The measured diffusivities for all experiments can be found in Table 6.
FRAP Analysis: Alexa Fluor 647 conjugated OVA (Thermo Fisher Scientific), rhodamine conjugated Poly(I:C) (Invivogen), and rhodamine conjugated HPMC-C12 were used to visualize the diffusion of the cargo and gel. Samples were photobleached with a 50 μm diameter for the region of interest (ROI). Different tests (n=5) were made for 3 different samples from the same batch at different locations of the sample. A spot was bleached with a pixel dwell time of 177.32 μs. 500 post-bleach frames were recorded at 1 frame/s to form the recovery exponential curve. The diffusion coefficient was calculated as^52:
Where the constant γD=τ1/2τD, with τ1/2 being the half-time of the recovery. τD the characteristic diffusion time, both yielded by the ZEN software, and ω the radius of the bleached ROI (25 μm).
The diffusivity of cargo in PBS was calculated using the Stokes-Einstein Law Equation for diffusion^53 where kB is Boltzmann's constant, T is temperature in Kelvin, η is solvent viscosity, and R is solute hydrodynamic radius
The diffusivity of cargo in a model covalent PEG gel was calculated using the Multiscale Diffusion Model (MSDM) assuming 25° C., 5% volume fraction, and 35 nm mesh size^54.
FRAP Analysis: Alexa Fluor 647 conjugated OVA (Thermo Fisher Scientific), rhodamine conjugated Poly(I:C) (Invivogen), and rhodamine conjugated HPMC-C12 were used to visualize the diffusion of the cargo and gel. The samples were placed in a sterile 0.18 mm thick glass bottom dish (Ibidi). An Inverted Zeiss LSM 780 Laser Scanning Confocal Microscope (Germany) using a Plan-Apochromat 20×/0.8 M27 objective lens was used for FRAP measurements. To excite the fluorescent Alexa Fluor 647, a 5 mW 633 nm He—Ne laser was employed at 2%, and the emitted fluorescence was detected by Alexa Fluor 647 specific band pass filter (638-756 nm). To excite the fluorescent rhodamine, a 20 mW 561 nm diode pumped solid state laser was used at 2%, and the emitted fluorescence was detected by rhodamine specific band pass filter (415-638 nm). We used pixel dwell time 2.55 μs which took 390.98 ms to finish every scan. Samples were photobleached with a 405 nm diode laser, plus the 633 nm laser in the case of the Alexa Fluor, and a 514 nm argon laser and the 561 nm laser in the case of the rhodamine. All lasers were set al 100% intensity for the bleaching, with a 20-40 μm diameter for the region of interest (ROI). To avoid any extra noise, the high voltage was limited to be 700 V. Different tests (n=5) were made for 3 different samples from the same batch at different locations of the sample. For each test, 10 control pre-bleach images were captured at 1 frame/s. A spot was bleached with a pixel dwell time of 177.32 μs. 500 post-bleach frames were recorded at 1 frame/s to form the recovery exponential curve. The pixel size was set to be 1.66 μm. The diffusion coefficient was calculated as^62: […]

SARS-CoV-2 spike protein = conditions: in vivo, sc
TLR9 = molecular target: T1, TLR9; assay: In vitro Raw-Blue reporter assay (CpG); type: cell-based; conditions: 100,000 Raw-Blue cells, 21 h, CpG-C 3.1-29 μg/mL, absorbance 655 nm
Method: In vitro Raw-Blue reporter assay. The Raw-Blue (NF-kB-SEAP) reporter cell line (Invivogen, raw-sp) was used to evaluate the valency effect of TLR9 agonist conjugated to PEG-PLA NPs. The cells were cultured at 37° C. with 5% CO2 in DMEM supplemented with L-glutamine (2 mM), D-glucose (4.5 g/L), 10% HI-FBS, and penicillin (100 U/mL)/streptonmcin (100 μg). Every other passage, zeocin (100 μg/mL) was added to the culture medium. Serial dilutions of soluble CpG-B and CpG-C and of the different CpG-B and CpG-C NPs formulations were added to a 96-well tissue culture treated plate to achieve final concentrations between 30 and 3.1 μg/mL of TLR9 agonist. Non-conjugated PEG-PLA NPs were used as a negative control. […] Manufacturer instructions were followed for SEAP quantification, and absorbance levels detected at 655 nm after 3 h incubation with QUANTI-Blue Solution (Invivogen). […]
In these assays, Raw-Blue cells were incubated for 21 h with either the free form, or the NPs tethered form (10%, 20%, 30%, 50%) of CpG-C at a range of CpG concentrations (3.1-29 μg/mL) in order to generate concentration dependent activation curves (FIG. 38B). […] To ensure a correct and consistent dosing of CpG NPs throughout different experiments, we constructed a standard curve for both classes of CpG-NPs (FIGS. 40A, 40B) by measuring the absorbance of different concentration of CpG at 280 nm. […]

[2] = reported in the literature; cited from earlier work

Row | Molecule | Diffusivity in 1:5 gel [1] | Diffusivity in 2:10 gel [1] | Diffusivity in PBS [1] [μm^2/s] | hydrodynamic radius (RH) ([1]; multi-angle light scattering (MALS)) [nm] | anti-spike total IgG endpoint titers (SARS-CoV-2 spike protein) | log EC50 (TLR9) | hydrodynamic radius (RH) in PBS [2] [nm]
1 | Poly(I:C) | 1.7 ± 0.3 μm^2/s | 2.4 ± 0.1 μm^2/s | 7.2 | 34.2 |  |  | 
2 | CpG-B 1826 [soluble CpG-B] |  |  |  |  | stronger response than the CpG-B NP |  | 
3 | CpG-C 2395 (DNA TCGTCGTTTTCGGCGCGCGCCG; chemistry not given here) [free CpG-C] |  |  |  |  |  | 1.15 log10(μg/mL) | 
4 | B1 | 5.76 μm^2/s and 6 ± 1 μm^2/s | 3.2 μm^2/s and 3.2 ± 0.6 μm^2/s | 76.6 |  |  |  | 3.2
